Reference: patent US20260263497A1, “METHOD OF TREATING SCHIZOPHRENIA AND COMPOSITION FOR USE THEREIN” (Academia Sinica, priority 2022, published 2026)

Columns and labels:
Assay type in all cases: in vivo, mice (C57BL/6)
[1] = test system: METH-induced hyperlocomotion in METH-naïve wild-type mice; experiment: METH-induced hyperlocomotor activity (METH-induced behavioral sensitization, open field); conditions: for effect on METH-induced hyperlocomotion activity, total travelled distance: i.p. co-injection 0.3, 1, 3 mg/kg with METH 2 mg/kg, 60 minutes, FIG. 2
Protocol: (§1) Animals: Male mice (C57BL/6; 2-3 months) were purchased from and maintained in the animal facility of National Taiwan University (Taipei, Taiwan) under standard condition with a 12-hr light/12-hr dark cycle. All animal experimental procedures were performed in accordance with the guidelines established by the Institutional Animal Care and Use Committee (IACUC) of the National Taiwan University and Institute of Biomedical Sciences (IBMS) at Academia Sinica (Taipei, Taiwan).
(§2) The locomotor activity: The locomotor activity was monitored and recorded using SMART 3.0 video tracking software (Panlab Harvard Apparatus, Barcelona, Spain) for 1 hour following the manufacture's protocol.
Methamphetamine (METH) is a dopamine enhancer that elevates synaptic dopamine in the brain and is frequently used to induce schizophrenia-like behaviors in mice.^6 Thus, METH-induced psychosis mice was used to evaluate the in vivo efficacy of JMF3464.
Male METH-naïve wild-type (WT) mice (3-6 months old) received intraperitoneal co-injections of JMF3464 (0.3, 1, or 3 mg/kg) and METH (2 mg/kg) immediately after establishing a 20-minute baseline for locomotor activity. The locomotor activity was recorded for 60 minutes after injection. A saline+vehicle group and a METH+vehicle group are used as control groups. In addition, under the same experimental conditions as JMF3464, the compound CGS21680 (A2A receptor agonist) with potential for treating schizophrenia was used as a comparison. The resulted data was expressed and analyzed as one-way ANOVA of total travelled distance (see FIG. 2) and two-way ANOVA of distance by 5-minute time bin (see FIGS. 3A and 3B) and.
as §1, with “IACUC” for “Institutional Animal Care and Use Committee (IACUC)”, “IBMS” for “Institute of Biomedical Sciences (IBMS)”
Male METH-naïve wild-type (WT) mice (3-6 months old) received intraperitoneal co-injections of JMF1907 (1 mg/kg) and METH (2 mg/kg) immediately after establishing a 20-minute baseline for locomotor activity. The locomotor activity was recorded for 60 minutes after injection. In this study, a saline+vehicle (5% DMSO) group and a METH+vehicle (5% DMSO) group are used as control groups. In addition, the compound JMF3464 described above, and the compound S-(4-Nitrobenzyl)-6-thioinosine (NBTI), known as an inhibitor of equilibrative nucleoside transporter 1 (ENTi) transporter, are used as comparative examples with the same experimental conditions as JMF1907. The resulted data was expressed and analyzed as one-way ANOVA of total travelled distance (see FIG. 5) and two-way ANOVA of distance by 5-minute time bin (see FIG. 6).

[2] = test system: locomotor activity of drug-naïve WT mice; experiment: Effect of JMF3464 alone on locomotor activity; conditions: single i.p. injection 0.3, 0.5, 1, 3 mg/kg
Protocol: as §1, §2
Male drug-naïve WT mice (3-6 months old) received a single dose JMF3464 injection (0.3, 0.5, 1, and 3 mg/kg, respectively) via intraperitoneal injection and the locomotor activity was recorded immediately after injection. A vehicle group is used as control group. The data were expressed and analyzed as one-way ANOVA of total travelled distance for 60 minutes (see FIG. 1A) and two-way ANOVA of distance by 5-minute time bin (see FIG. 1B).

METH-induced CPP in mice = experiment: METH-induced conditioned place preference (CPP)
Protocol: as §1
The METH-induced conditioned place preference (CPP) task is further performed to examine the therapeutic effect of JMF3464 on METH-induced addiction.
The METH-induced CPP procedure is shown as follows. The conditioned place preference (CPP) paradigm is a standard preclinical behavioral model used to study the rewarding and aversive effects of drugs. The paradigm usually uses a two-compartment apparatus with each compartment displaying distinct contextual characteristics (e.g., wall colors/patterns and floor texture). The CPP model consisted of three phases: pre-conditioning (baseline), conditioning, and post-conditioning (i.e., CPP test). […] Lastly, one day after the conditioning sessions, mice underwent a CPP test where they were again given free access to all compartments for 15 minutes and the time spent in the METH-paired side was measured, which provided a measure of CPP expression.

`CCNC(=O)[C@H]1O[C@@H](n2cnc3c(N)nc(NCCc4ccc(CCC(=O)O)cc4)nc32)[C@H](O)[C@@H]1O` [CGS21680, reference compound] was tested, and the “effect on METH-induced hyperlocomotion activity, total travelled distance” value [1] was “dose-dependently suppressed”.

`OC[C@H]1O[C@@H](n2cnc3c(NCCc4c[nH]c5ccccc45)ncnc32)C(O)C1O` (some centres unmarked) [JMF1907] was tested, and the “improvement of METH-induced hyperactive behavior, five-minute intervals” value ([1]; 1 mg/kg i.p. co-injection with METH 2 mg/kg, open field 60 minutes, FIG. 6) was “comparable to the control group” and the “effect on METH-induced hyperactive behavior, overall locomotion” value ([1]; 1 mg/kg i.p. co-injection with METH 2 mg/kg, open field 60 minutes, vehicle 5% DMSO, compared to JMF3464 and NBTI, FIG. 5) was “significantly improves”.

In the case of `OC[C@H]1O[C@@H](n2cnc3c(NCc4ccc(Br)s4)ncnc32)[C@H](O)[C@@H]1O` [JMF3464, N6-[(5-bromothien-2-yl)methyl]adenosine], the “effect on METH-induced locomotion activity, 5-minute time bins” value ([1]; 3 mg/kg i.p. co-injection with METH 2 mg/kg, vs METH+vehicle, FIGS. 3A, 3B) is reported as “significantly lowered”, the “effect on METH-induced hyperlocomotion activity, total travelled distance” value [1] is reported as “dose-dependently suppressed” and the “effect on METH-induced behavioral sensitization after repeated use” value ([1]; repeated use, no further conditions given) is reported as “no effect”. For the same molecule, the “effect on locomotor activity” value ([2]; 60 minutes) was “dose-dependent effect”, the “reduction of total locomotor activity” value ([2]; total travelled distance 60 minutes, vs vehicle) was ~ 20% and the “inhibitory effect on METH-induced CPP” value (METH-induced CPP in mice; 1 mg/kg i.p. 10 minutes before each METH conditioning session, FIG. 4A) was “neither 1 mg/kg nor 3 mg/kg of JMF3464 exerted inhibitory effect”. For the same molecule, the “inhibitory effect on METH-induced CPP” value (METH-induced CPP in mice; 3 mg/kg i.p. 10 minutes before each METH conditioning session, FIG. 4B) was “neither 1 mg/kg nor 3 mg/kg of JMF3464 exerted inhibitory effect”.

For `CN[C@@H](C)Cc1ccccc1` [METH, Methamphetamine], the “hyperlocomotion induced by METH” value ([1]; METH 2 mg/kg i.p. + vehicle vs saline+vehicle, total travelled distance 60 minutes) was “approximately 200%”.
